Values after ≈ are worked out from the molar mass of the structure shown. Read-outs that look alike come from different tables or passages of the source.
Key:
[1] = Amorphous solubility, solvent quench method; format: physicochemical; conditions: higher in distilled water
Experimental: The amorphous solubility of CRT was measured using the solvent quench method, which employed methanol and HPMC as the solvent and crystallization inhibitor, respectively. […] The detailed amorphous solubility methodology can be found in Shete et al. (2021).[39]

A549 cells [2] = experiment: Cell cycle analysis by flow cytometry (propidium iodide); format: cell-based, human; conditions: individual IC50 concentrations, 48 h
Experimental: Exponentially growing cells were detached from T-25 cell culture flasks using trypsin and then transferred to sterile Petri plates. The cells were allowed to attach and grow for approximately 24 h. After the attachment period, different treatments were applied to the cells, and the plates were further incubated for 48 h. The media was removed after 48 h of incubation, and the plates were rinsed two times with phosphate buffer. After that, the cells were trypsinized and centrifuged at 4 °C. After centrifugation, the pellet was fixed in 70% ice-cold ethanol for 30 min at 4 °C. The resulting pellet was resuspended in Dulbecco’s phosphate-buffered saline (PBS) to wash the cells. After another round of centrifugation, the supernatant was removed and the pellet was redispersed in a staining solution consisting RNase, propidium iodide, and NP-40. For 20 min, the cell suspension was incubated in the dark at room temperature. The cells were then analyzed with a BD Accuri C6 flow cytometer (BD Biosciences, San Jose, CA, USA).[42]

CYP2C9 = tested on: CYP2C9; set-up: method as in PMID 33394101; conditions: 33 adult NSCLC patients; cited from earlier work
A549 cells [3] = experiment: SRB (sulforhodamine B) cytotoxicity assay; format: cell-based; conditions: Homo sapiens, read-out: IC50 value
Experimental: A cell suspension was made based on cell count, and 5000 cells were seeded per well in a 96-well plate. […] The SRB assay was performed after a 48 h incubation […], and the absorbance at 540 nm was determined using a plate reader.[40]

[4] = set-up: method as in doi:10.1021/acs.cgd.7b01027; conditions: cited from earlier work
[5] = Thermodynamic solubility, shake flask method; format: physicochemical; conditions: phosphate buffer 50 mM pH 6.8, 24 h, 37 °C; read-out: thermodynamic solubility of CRT
Experimental: Excess amounts of CRT and CAMs were added to solubility vials (2 mL) containing the buffer. These vials were then subjected to agitation on an orbital shaker for 24 h at 37 °C and 120 rpm. After this incubation period, the pH of the samples was checked and adjusted if necessary just before centrifugation. Centrifugation was carried out at 37 °C, 10,000 rpm, for 10 min, trailed by the collection of the supernatant and its dilution using the mobile phase. The samples were then analyzed by using the HPLC method described below. This experimental procedure was conducted in triplicate (n = 3).
The Shimadzu Prominence UHPLC with a UV detector was used for the analysis. A GraceSmart Brava BDS-C18 column (250 mm × 4.6 mm × 5 μm) was used for chromatographic separation. The mobile phase was given in a gradient manner with 42:50:8% v/v methanol:25 mM phosphate buffer pH 3.0:ACN for 5 min and 50:50% v/v acetonitrile:25 mM phosphate buffer pH 3.0 for 17 min at a flow rate of 1 mL/min.

CYP3A = tested on: CYP3A; set-up: method as in PMID 33394101; conditions: 33 adult NSCLC patients; cited from earlier work
[6] = Oral pharmacokinetic study; format: in vivo, male Wistar rats; conditions: single oral dose 15 mg/kg
Experimental: Pharmacokinetic studies were conducted by following the CPCSEA guidelines. MAHE-IAEC (IAEC/KMC/24/2020) approved the study. The study utilized a parallel design, with each group comprising 3 male Wistar rats weighing approximately 200 g, with a variation of ±20 g. Prior to treatment, the rats underwent a 12 h fasting period but were allowed access to water. Treatment A involved administering a dose of 15 mg/kg of CRT, suspended in a 0.5% (w/v) carboxyl methyl cellulose (CMC) aqueous solution. Treatment B consisted of a 15 mg/kg equivalent CRT CAMs suspension prepared in a 0.5% (w/v) CMC vehicle. The animals received 1 mL of the suspension orally via oral gavage. The interested readers are directed to the pharmacokinetic study reported by Yarlagadda et al. (2023) for detailed methodology.[38]

P-gp = tested on: P-gp; set-up: method as in doi:10.1016/j.jddst.2022.103431; conditions: read-out: IC50 value of NRG for P-gp inhibition; cited from earlier work
[7] = set-up: method as in doi:10.1007/s12247-019-09381-9; conditions: cited from earlier work
[8] = male, Wistar, rat, plasma, n = 3

Row | Structure (SMILES) | amorphous solubility of CRT, distilled water versus pH 6.8 phosphate buffer [1] | %G1 (percentage of cells in G0/G1 phase) (A549 cells [2]) | %G2 (percentage of cells in G2/M phase) (A549 cells [2]) | improvement of AUC of S-warfarin by CRT (CYP2C9) | IC50 (A549 cells [3]; A549, 48 h) | excess enthalpy of CRT in water [4] | solubility thermodynamic at 24 h [5] | enhancement of AUC of midazolam by CRT versus midazolam alone (CYP3A) | enhancement of Cmax of midazolam by CRT versus midazolam alone (CYP3A) | Cmax ([6]; male, Wistar, rat, plasma, po, 15 mg/kg, n = 3, read-out: Cmax of CRT) | MRT [6, 8] | Tmax [6, 8] | half-life [6, 8] | AUC(0-t) ([6]; male, Wistar, rat, plasma, n = 3, 72 h, read-out: AUC0–t of CRT) | Cmax of CRT ([6]; n = 3, 15 mg/kg) | IC50 (P-gp) | glass transition event temperature [7] | IC50 (A549 cells [3]; A549, SRB, 48 h incubation)
1 | Cc1cc(Nc2ncc(Cl)c(Nc3ccccc3S(=O)(=O)C(C)C)n2)c(OC(C)C)cc1C1CCNCC1 [CRT, ceritinib] | approximately threefold | 47.1% | 23.9% | 56% | 3.53 µM | -0.844 kcal/mol | 3.3 µg/mL (≈ 5.91 µM) | 5.42 fold | 1.82 fold | 173 ng/mL | 20.2 ± 0.75 h | 6 h | 22.1 h | 3580 ± 218 ng·h/mL | 173.26 ± 5.34 ng/mL | – | – | –
2 | C[C@@H]1O[C@@H](O[C@H]2[C@H](Oc3cc(O)c4c(c3)O[C@H](c3ccc(O)cc3)CC4=O)O[C@H](CO)[C@@H](O)[C@@H]2O)[C@H](O)[C@H](O)[C@H]1O [NRG, naringin] | – | – | – | – | – | – | – | – | – | – | – | – | – | – | – | 2400 µM | 167 °C | 162 µM

Reference: paper PMC11304383 (Molecular Pharmaceutics, 2024)
